The results in this text go back to article PMC10435995 (Life Science Alliance, 2023).

The target in the test is T1, hDHFR (dihydrofolate reductase) (Homo sapiens, UniProt P00374).
T1 construct: gene DHFR; recombinant hDHFR (8456-DR-100; R&D Systems)
T1 sequence (P00374 1-187): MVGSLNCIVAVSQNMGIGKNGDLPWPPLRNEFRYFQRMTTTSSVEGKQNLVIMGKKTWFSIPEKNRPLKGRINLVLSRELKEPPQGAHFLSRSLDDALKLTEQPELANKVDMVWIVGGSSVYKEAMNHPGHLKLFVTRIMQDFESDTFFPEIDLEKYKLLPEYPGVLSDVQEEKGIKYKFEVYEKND
Briefly: ITC at […]°C without NADPH (also enzyme inhibition, CETSA, TPP). Format: binding. The note with it: read-out: Average Kd (±s.d.).

By Kd is commonly meant a measure of binding affinity in units of concentration. For the molecule `Cc1nc(N)nc(N)c1/C=C/C1(c2ccc(C(F)(F)F)cc2)CC1` [C1], the dissociation constant Kd amounted to 28.1 ± 18.4 nM.
